From patent publication US10457665B2, “1,4-di-(4-methylthiophenyl)-3-phtaloylazetidine-2-one and the derivatives thereof” (Universite De Nantes, priority 2015, dated 2019)

Test system: C57BL/6 mice
Test: Gastrointestinal transit (charcoal), anandamide-induced inhibition
Type: in vivo, mouse
Conditions: 10 mg/kg i.p. with AEA 10 mg/kg i.p.
Description: Transit through the stomach and the intestine was measured via oral administration of vegetable charcoal suspended in gum arabic used herein as nonabsorbable marker. Briefly, following a short fast, C57BL/6 mice were injected intraperitoneally (i.p.) with anandamide (10 mg/kg) in the presence or absence of the molecule of interest JM-00.266 (i.e., compound IA) (10 mg/kg) before oral charcoal administration. 25 minutes later, the animals were sacrificed by cervical dislocation in order to entirely remove the intestine. The distance between the beginning of the pylorus and the location of the charcoal bolus was measured.

## CSc1ccc(C2C(N3C(=O)c4ccccc4C3=O)C(=O)N2c2ccc(SC)cc2)cc1 (stereo not drawn) [JM-00.266, trans-1,4-di-(4-methylthiophenyl)-3-N-phthaloyl-azetidine-2-one]
  effect on AEA-induced inhibition of gastrointestinal transit: completely abolishes the effect of the agonist and normalizes gastrointestinal transit
